Results published in patent publication US9284559B2, “Multivalent aptamer complexes” (Wake Forest University Health Sciences, priority 2009, dated 2016).

Legend:
[1] = system: PC3 xenografts; experiment: In vivo xenograft study of anti-tumor activity; details: for tumor growth relative to control: i.v. 1× per week via jugular vein catheter, 5FU 100 mg/kg, first 44 days, FdUMP[10] effect from day 18
Description: FIG. 7. Plot of tumor size versus time for PC3 xenografts in nude mice. Data are shown for four treatment groups (n=8 in each group): 1) control 1; 2) FdUMP[10]; 3) control 2; 4) 5-FU. The FdUMP[10] and 5FU studies were done consecutively (rather than concurrently) so that two control groups were required.
The principal strategy that will be used to render the dimeric aptamer complexes we have developed selectively cytotoxic towards targeted cancer cells is to include cytotoxic nucleotides, such as FdU, in the structure. While other modalities may also be included to render these modified aptamers cytotoxic to cancer cells (e.g. siRNA, toxins), there is considerable merit to the concept that dimeric aptamer complexes are the best method for delivery of FdU and other cytotoxic nucleotide analogs in the future. In principle, delivery of cytotoxic nucleotide analogs in aptamers increases the selectivity and potency of these drugs while minimizing systemic toxicities. In this regard, it is important to consider the advantages obtained by inclusion of FdU in single-stranded DNA (e.g. FdUMP[10]) relative to delivery as the nucleobase (5FU). We have shown that not only does delivery of fluoropyrimidine (FP) as FdUMP[10] increase efficacy and decrease toxicity, it also changes the spectrum of malignancies that are responsive to FP treatment. […] PSMA, the target for the dimeric aptamer complexes being developed by us, is frequently expressed in advanced prostate cancer. PSMA is also frequently expressed in tumor neovasculature. As FPs are widely used for treatment of solid tumors, the dimeric aptamer complexes developed in these studies should provide an improved mechanism for tumor-specific delivery of FPs.
We recently completed an in vivo xenograft study evaluating the anti-tumor activity of FdUMP[10] and 5FU towards PC3 xenografts (FIG. 8). […] FdUMP[10] (150 mg/kg) was injected i.v. 1× per week via jugular vein catheter. 5FU (100 mg/kg) was also injected 1× per week by the same route. […] FdUMP[10] was well-tolerated at the administered dose. A mixed effects model was fit to examine whether there were differences between groups over the first 44 days after administration of FdUMP[10] or 5FU. In this model, individual animals were considered as random effects and the group and day variables were considered as fixed effects. […] We expect that with dimeric aptamer complexes including FdU, we will further increase the selectivity for malignant cells and further reduce systemic toxicities. Thus, dimeric aptamer complexes may ultimately become the preferred method for administering fluoropyrimidine chemotherapy in the era of molecularly targeted cancer therapeutics.

[2] = system: C4-2 cells; experiment: Fluorescence microscopy of fluorescently-labeled aptamer, dimeric complex or mAb on live cells; format: cell-based
Experimental: (§1) FIG. 1. Fluorescence microscopy images of the PSMA01 DNA aptamer binding to (A) C4-2 cells; (B) LNCaP cells; (C)PC3 cells. (D) Binding of the A10-3 RNA aptamer to C4-2 cells. Live cells were incubated in PBS with 1×10^−6 M Rhodamine-conjugated aptamer for 2 h at room temperature. Cells were fixed with 3.7% formaldehyde for 2 min prior to visualization using an Olympus inverted microscope.
FIG. 3. Fluorescence microscopy images of (A) a monomeric aptamer conjugate of PSMA01 with a dT16 tail; (B) a dimeric aptamer complex consisting of 1:1 ratio of monomeric PSMA01 conjugates with dA16 and dT16 tails; (C) the J591 mAb. All images were obtained using live C4-2 cells. For (A) and (B) cells were prepared as described in FIG. 4. […]
We have has formed an affinity matrix using recombinant PSMA expressed from baculovirus. […] Protein purity was determined by gel electrophoresis and the identity of the protein was confirmed by Western blotting and mass spectrometry. […] The ssDNA product was analyzed by gel electrophoresis and quantified by UV absorption. […] DNA sequences were determined from individual clones at the core DNA sequencing facility of the CCCWFU. […] These sequences were also shown using fluorescence microscopy to bind selectively to PSMA-expressing prostate cancer cells (LNCaP, C4-2) relative to PC3 cells. […]

[3] = system: PC3 cells; experiment: Fluorescence microscopy of fluorescently-labeled aptamer on live cells (PSMA− negative control); format: cell-based; details: 2 h, room temperature
Experimental: as §1
(§2) In these studies, live (non-fixed cells) cells were incubated in the presence of fluorescently-labeled aptamer for 2 h at room temperature. In these studies, C4-2 and LNCaP cells were used to evaluate binding to PSMA+ cells while PC3 cells were used as a PSMA− negative control.

[4] = system: LNCaP cells; experiment: Fluorescence microscopy of fluorescently-labeled aptamer on live cells; format: cell-based; details: PSMA+ cells, 2 h, room temperature
Experimental: as §1, §2

[5] = system: C4-2 cells; experiment: Flow cytometry of binding of fluorescently labeled aptamers and dimeric aptamer complexes; format: cell-based; details: FIG. 6; Quasar 570 / Quasar 670 fluorescence
Experimental: FIG. 6. Flow cytometry evaluation of the binding of fluorescently labeled aptamers and dimeric aptamer complexes with and without flexible linkers to C4-2 cells. Aptamer labeling with Quasar 570 and Quasar 670 was done as described in FIG. 8.
The relative binding of the PSMA01 DNA aptamer in monomeric form as well as in dimeric form with and without flexible linkers was also evaluated towards C4-2 cells using flow cytometry. Cells were treated in the same manner as described for the confocal microscopy experiments and were detached using an enzyme-free cell-dissociation buffer (Invitrogen). Cells were analyzed using a BD FACSCanto flow cytometry system and the data were analyzed using BD FACSDiva software (BD Biosciences, San Jose, Calif.).

[6] = system: PC3 cells; experiment: Relative cytotoxicity of activated FPs in PC3 versus C4-2 cells; format: cell-based; details: PC3 mutant p53, C4-2 wtp53; ongoing studies

`O=c1[nH]cc(F)c(=O)[nH]1` [5FU, 5-fluorouracil] was tested, and the “tumor growth relative to control” value ([1]; FdUMP[10] 150 mg/kg) was “did not reduce tumor growth rates relative to control” and the “tolerability / body weight at administered dose” value ([1]; mouse, in vivo) was “lost weight compared to the controls”.
In the case of “PSMA01: DNA aptamer to PSMA, 5′-GCGTTTTCGCTTTTGCGTTTTGGGTCATCTGCTTACGATAGCAATCGT (SEQ ID NO: 1) (DNA, backbone and methylation of C not given here; further chemistry not fully specified)”, the “internalization into PSMA+ cells” value ([2]; C4-2 and LNCaP cells, incubation at room temperature or 37° C.) is reported as “Neither our PSMA-01 DNA aptamer nor the A10-3 aptamer were internalized into PSMA+ cells to any significant extent”, the “binding to C4-2 cells” value ([2]; PSMA+ cells, live cells, 1×10^−6 M Rhodamine-conjugated aptamer, 2 h, room temperature) is reported as “selective binding” and the “binding to PC3 cells” value [3] is reported as “no binding”. For the same molecule, the “binding to LNCaP cells” value [4] was “selective binding” and the “mean fluorescence intensity (cell binding)” value [5] was “right-shifted relative to background”.
FdUMP[10] was tested, and the “tumor growth relative to control” value ([1]; FdUMP[10] 150 mg/kg) was “significantly reduced tumor growth relative to control”, the “tolerability / body weight at administered dose” value ([1]; i.v. 1× per week, FdUMP[10] 150 mg/kg, 5FU 100 mg/kg (maximum tolerated dose)) was “well-tolerated” and the “relative sensitivity of PC3 versus C4-2 cells to activated FPs” value [6] was “PC3 cells are more sensitive”.
